Read-outs that look alike come from different tables or passages of the source. Positions of bridges follow the written chain, without caps; N, C: chain ends. Residues, ends and D or L forms follow the SMILES beside them.

A word on the MIC: it is the smallest concentration in the dilution series that meets the test's criterion for growth inhibition. Higher therefore signals a need for much substance. The term amount remaining denotes the share of the starting amount still present when the sample was taken. A lower amount remaining goes with more turnover.

For one data set, the system named is A. veronii CL0901. On the procedure:
(§1) Briefly, the tested strains including Gram-negative bacteria, Gram-positive bacteria, and fungi were cultured to the logarithmic growth phase, diluted to 10^5 CFU/mL, and added into 96-well plates (90 μL/well). Two-fold serial dilutions of peptides or antibiotics dissolved in PBS were added to each well (10 μL/well). […] All experiments were repeated three times.

Data set [1] deals with Aeromonas veronii ACCC61732. Here is the method:
as §1

The subject of data set [2] is Pseudomonas aeruginosa CICC21630. Here is the method: as §1
Another data set has as its system S. aureus ATCC25923. Here is the method:
as §1

A further data set relates to S. aureus ATCC546. On the procedure: as §1
The next data set relates to S. hyicus NCTC10350. Here is the method: as §1
In data set [3] the test system is Salmonella typhimurium ATCC14028. The data set is classed as cell-based.
For a further data set, the system named is S. hyicus 437-2. Type of data set: cell-based.
Data set [4] has as its system A. veronii ACCC61732. The data set is described as follows: Outer membrane permeabilization, NPN assay. Type of data set: cell-based. The settings on record: NPN fluorescence, 1×–4× MIC. Here is the method: The outer membrane permeabilization abilities of peptides were determined using the fluorescent NPN assay. Mid-log phase A. veronii ACCC61732 was collected by centrifugation, washed twice, and then suspended in N-2-hydroxyethylpiperazine-n-2-ethane sulfonic acid (HEPES) buffer (pH 7.4) to an OD600nm = 0.4. […] Fluorescence intensity was recorded until no further increase with a microplate reader (excitation/emission, 328/438 nm).

Data set [5] concerns A. veronii ACCC61732 genomic DNA. The data set is described as follows: CD spectra of genomic DNA with peptides. Type of data set: binding. The settings on record: mass ratios 2.5 and 10.0, 10 min, room temperature. On the procedure:
CD spectra were performed to examine the secondary structure of genomic DNA from A. veronii ACCC61732 after incubation with peptides. […] The mixtures were loaded into a cuvette of 1.0-mm path length and scanned from 190 to 330 nm at 25 °C using a Pistar π-180 CD spectrometer (Applied Photophysics Ltd., Surry, UK).

Another data set relates to trypsin. The settings on record: pH 8.
The next data set is described as follows: in vitro. The settings on record: mouse, 25% mouse serum.
The subject of data set [6] is A. veronii ACCC61732 biofilms. Put plainly: Mouse model of catheter-associated biofilm infection, bacteria in catheter. Type of data set: in vivo, ICR mice. The settings on record: 5 μmol/kg peptide or CIP 24 h after catheter implantation, catheters collected after seven days, six mice per group. Here is the method:
Briefly, the catheter was cut into 1 cm segments; each piece was sterilized with 70% ethanol and then dried by air. Bacterial biofilms were developed on the catheter by placing individual segments into tubes containing 1.0 mL of a cell suspension (1 × 10^8 CFU/mL) in TSB. After incubation for 24 h at 37 °C, colonized catheters were recovered aseptically and rinsed with PBS to remove unbound bacteria. ICR female mice (20 ± 5 g) were anesthetized with isoflurane; the flanks were shaved and the skin was cleansed with alcohol. […] The incision was then covered with intact skin and closed with surgical suture line and the skin was disinfected. […] The untreated mice were used as the negative control and the mice with sterile catheter were used as the blank control. The mice were anesthetized and sacrificed after seven days. The catheters in the back of the mice were collected and thoroughly shaken in sterile PBS.

The subject of data set [7] is A. veronii ACCC61732. The data set is described as follows: Mouse peritonitis model, bacterial translocation to organs. The data set is classed as in vivo, ICR mice. The settings on record: 24 h post-treatment, colony counting. On the procedure: (§2) Sera and organs (livers, kidneys, spleens, and lungs) were collected from the mice at 24 h post-treatment. The organs were homogenized in sterile PBS to evaluate bacterial translocation by colony counting. The levels of cytokines (TNF-α, IL-1β, IL-6, and IL-10) in sera were detected using the ELISA kits.

For another data set, the system named is IL-10. Put plainly: Serum cytokine, ELISA, peritonitis model. Type of data set: in vivo. The settings on record: 24 h after treatment, range over mice. Here is the method:
as §2

Data set [8] deals with A. veronii ACCC61732. Put plainly: Organ injury in peritonitis model, histology. Type of data set: in vivo, mice. The settings on record: peptides 5 μmol/kg, CIP 1 μmol/kg. On the procedure: Livers, kidneys, spleens, and lungs were removed from mice at 24 h and five days post treatment to evaluate the organ injury. After washing with PBS, the organs were fixed in 4% paraform-aldehyde for 24 h at 4 °C, dehydrated by a graded series of ethanol (75‒95%), and infiltrated with xylene. The organs were then embedded in paraffin wax, sectioned, and stained with hematoxylin and eosin. Finally, the tissue samples were fixed and observed by the light microscope. The CIP-treated mice served as the positive control and the PBS group served as the negative control.

In another data set the test system is mouse erythrocytes. The data set is described as follows: Hemolysis. The data set is classed as cell-based. The settings on record: 256 μg/mL; 8% mouse erythrocyte suspension, 37 °C, 1 h, absorbance 540 nm. Here is the method: To determine the hemolysis of peptides, eyeball blood was collected from 6-week-old SPF ICR mice. The blood was centrifuged at 4 °C for 10 min (1500 rpm), washed three times with 0.9% physiological saline, and diluted to 8% suspension. […] Red blood cell suspensions and peptide solutions (100 μL) were mixed in 96-well plates, centrifuged at 4 °C for 5 min (1500 rpm), and incubated at 37 °C for 1 h. The supernatant was added into a 96-well plate and the UV absorbance was measured at 540 nm using a microplate reader. Physiological saline and 0.1% Triton X-100 were used as 0% and 100% hemolytic controls, respectively. The hemolytic ratio was calculated as follows: Hemolysis (%) = [(Abspeptide − Abssaline)/(Abs0.1%Triton X-100 − Abssaline)] × 100% [38].

[9] abbreviates: A. veronii CL0901, broth dilution, 37 °C, 16–18 h, three experiments.
[10] abbreviates: Aeromonas veronii ACCC61732 (MDR), broth dilution, 37 °C, 16–18 h, three experiments.
[11] abbreviates: S. aureus ATCC25923, broth dilution, 37 °C, 16–18 h, three experiments.
[12] abbreviates: S. aureus ATCC546, broth dilution, 37 °C, 16–18 h, three experiments.
Setting [13] is: Salmonella typhimurium ATCC14028, broth dilution, 37 °C, 16–18 h, three experiments.
[14] abbreviates: S. hyicus 437-2 (clinical isolate, pig farm), broth dilution, 37 °C, 16–18 h, three experiments.

Regarding `CC(C)[C@@H]1NC(=O)CNC(=O)[C@H](CC(N)=O)NC(=O)[C@H](CCCNC(=N)N)NC(=O)[C@H](Cc2ccc(O)cc2)NC(=O)[C@H](C(C)C)NC(=O)[C@@H](NC(=O)[C@@H](NC(=O)[C@H](CC(N)=O)NC(=O)[C@H](Cc2c[nH]c3ccccc23)NC(=O)[C@H](C)NC(=O)[C@H](Cc2ccccc2)NC(=O)[C@H](CCCN)N=C(N(C)C)N(C)C)C(C)C)CSSC[C@@H](C(=O)N[C@@H](Cc2c[nH]cn2)C(=O)N[C@@H](CCCNC(=N)N)C(=O)N[C@@H](CCCNC(=N)N)C(=O)N[C@@H](C)C(=O)N[C@@H](CC(N)=O)C(N)=O)NC(=O)[C@H](C(C)C)NC(=O)[C@H](CCCNC(=N)N)NC1=O` (stereo in doubt) [Guo-N6NH2], the minimum inhibitory concentration (MIC) was 6.08 µM in the data set with A. veronii CL0901; 16 µg/mL against A. veronii CL0901 (setting [9]); 3.04 µM in data set [1]; 8 µg/mL in [1] (setting [10]); greater than 24.3 µM in data set [2] (CICC21630); 12.16 µM in the data set with S. aureus ATCC25923 (ATCC25923). Also, the minimal inhibitory concentration (MIC) in the data set with S. aureus ATCC25923 (setting [11]) turned out to be 32 µg/mL; with S. aureus ATCC546 (ATCC546), 6.08 µM; against S. aureus ATCC546 (setting [12]), 16 µg/mL; in the data set on S. hyicus NCTC10350 (NCTC10350), 24.32 µM; with S. hyicus NCTC10350 (S. hyicus NCTC10350, broth dilution, 37 °C, 16–18 h, three experiments) it was 64 µg/mL; in data set [3] (setting [13]) it was 4 µg/mL. The MIC against S. hyicus 437-2 was 12.16 µM; against S. hyicus 437-2 (setting [14]), 32 µg/mL. Besides, in [1] (Table S6 control: absence of temperature, acid and alkali, salt and enzyme condition), the “MIC, control” value stood at 8 µg/mL. Also, the “ability to penetrate the outer membrane” value in the data set with A. veronii ACCC61732 [4] was “higher ability to penetrate the outer membrane than N6NH2”. Further, in [5], the “effect on CD spectrum of genomic DNA” value was “do not affect the double helix of genomic DNA”. Further, the “MIC after trypsin treatment” value in the data set on trypsin is listed as “lost their activity”. Also, the amount remaining at 2 h in “in vitro” was found to be 84%. The compound also gave an amount remaining at 4.5 h in “in vitro” of 56.8%. The same compound displayed a fraction remaining at 6 h in “in vitro” of 44.2%.

Turning to `O=C(O)c1cn(C2CC2)c2cc(N3CCNCC3)c(F)cc2c1=O` [CIP, ciprofloxacin, reference compound], in data set [6], the “decrease of bacterial cells in the catheter” value is reported as 28.72%. In addition, in the data set with A. veronii ACCC61732 [7] (1 μmol/kg), the “reduction of bacteria in kidneys” value is 60.14%, the “reduction of bacteria in livers” value is reported as 54.55%, the “reduction of bacteria in lung” value is 62.27% and the “reduction of bacteria in spleens” value was determined as 53.62%. Moreover, in the data set with IL-10 (1 μmol/kg), the “serum level of IL-10” value lay within 10.1 to 16.41 pg/mL. For the same compound, in the data set with A. veronii ACCC61732 [8], the “effect on injury of liver, spleen, kidney and lung” value is recorded as “weak therapeutic effect”.

Consider `CC(C)[C@@H]1NC(=O)CNC(=O)[C@H](CC(N)=O)NC(=O)[C@H](CCCNC(=N)N)NC(=O)[C@H](Cc2ccc(O)cc2)NC(=O)[C@H](C(C)C)NC(=O)[C@@H](NC(=O)[C@@H](NC(=O)[C@H](CC(N)=O)NC(=O)[C@H](Cc2c[nH]c3ccccc23)NC(=O)[C@H](C)NC(=O)[C@H](Cc2ccccc2)NC(=O)CN)C(C)C)CSSC[C@@H](C(=O)N[C@@H](Cc2c[nH]cn2)C(=O)N[C@@H](CCCNC(=N)N)C(=O)N2CCC[C@H]2C(=O)N[C@@H](C)C(=O)N[C@@H](CC(N)=O)C(N)=O)NC(=O)[C@H](C(C)C)NC(=O)[C@H](CCCNC(=N)N)NC1=O` [N6PNH2] (H-GFAWNVCVYRNGVRVCHRPAN-NH2; disulfide 7-16 (inferred)), for which the MIC in the data set with A. veronii CL0901 is 26.49 µM; in the data set on A. veronii CL0901 (setting [9]), 64 µg/mL; in data set [1], 6.62 µM; in [1] (setting [10]), 16 µg/mL; in data set [2] (Pseudomonas aeruginosa CICC21630, broth dilution, 37 °C, 16–18 h, three experiments) it was greater than 64 µg/mL; against S. aureus ATCC25923 (setting [11]) it was greater than 64 µg/mL. In addition, the MIC in the data set with S. aureus ATCC546 (setting [12]) is greater than 64 µg/mL; with S. hyicus NCTC10350 (NCTC10350), greater than 52.98 µM; in data set [3] (ATCC14028), 6.62 µM; in [3] (setting [13]) it was 16 µg/mL; against S. hyicus 437-2 (setting [14]), greater than 64 µg/mL. Further, the hemolysis in the data set on mouse erythrocytes is on record as 0.56%. Also, in data set [5], the “effect on CD spectrum of genomic DNA” value is reported as “do not affect the double helix of genomic DNA”. For the same compound, the “decrease of bacterial cells in the catheter” value in [6] is given as 54.09%. The “reduction of bacteria in kidneys” value in the data set with A. veronii ACCC61732 [7] (5 μmol/kg) turned out to be 18.36%. In addition, the “reduction of bacteria in livers” value with A. veronii ACCC61732 [7] (5 μmol/kg) came out at 31.54%. Further, the “reduction of bacteria in lungs” value with A. veronii ACCC61732 [7] (5 μmol/kg) turned out to be 15.92%. In the data set with A. veronii ACCC61732 [7] (5 μmol/kg), the “reduction of bacteria in spleens” value turned out to be 28.47%. Further, in the data set with IL-10 (5 μmol/kg), the “serum level of IL-10” value is “no discrepancy of IL-10 levels”. Also, the “effect on injury of liver, spleen, kidney and lung” value in the data set on A. veronii ACCC61732 [8] is given as “worst therapeutic effect”. Moreover, the “MIC after trypsin treatment” value in the data set with trypsin is “lost their activity”. For the same compound, the fraction remaining at 2 h in the data set “in vitro” amounted to 95.2%. Moreover, in “in vitro”, the share remaining at 4.5 h was found to be 84.9%. The compound also yielded a share remaining at 6 h in “in vitro” of 79.9%.
